The text below walks through data of patent publication US9593108B2, “Compounds and methods for antiviral treatment” (PTC Therapeutics, Inc., priority 2009, dated 2017).

A value given as a limit tells only on which side of the number the result lay.

The assay concerns HCV replicon RNA (GenBank Accession No. AJ242654). The assay is described as follows: HCV Replicon Assay (replicon RNA reduction and/or Fluc reporter signal). The assay is classed as cell-based, Hepatitis C virus. As to conditions: Hepatitis C virus, 72 h, replicon-containing cells cultured with test compound for up to 3 days. From the text: The lack of reliable and readily accessible cell-culture and small animal models permissive for HCV replication has limited the development of new anti-HCV agents. Self-replicating subgenomic HCV systems, termed HCV replicons, have been described and have been widely used to assess the efficacy of anti-HCV inhibitors (see Blight K J, et al., 2000, Efficient initiation of HCV RNA replication in cell culture. Science 290:1972-1974; Blight K J, et al., 2002, Highly permissive cell lines for subgenomic and genomic hepatitis C virus RNA replication. J Virol 76:13001-13014; Ikeda M, et al., 2002. Selectable subgenomic and genome-length dicistronic RNAs derived from an infectious molecular clone of the HCV-N strain of hepatitis C virus replicate efficiently in cultured Huh7 cells. J Virol 76:2997-3006; Lohmann V, et al., 1999, Replication of subgenomic hepatitis C virus RNAs in a hepatoma cell line. Science 285:110-113; Pietschmann T, et al., 2002, Persistent and transient replication of full-length hepatitis C virus genomes in cell culture. J Virol 76:4008-4021; and, Pietschmann T, et al., 2001, Characterization of cell lines carrying self-replicating hepatitis C virus RNAs. J Virol 75:1252-1264).
As described in U.S. Pat. No. 6,630,343, HCV inhibitors are analyzed in the bicistronic replicon by quantitating replicon RNA (GenBank Accession No. AJ242654) reduction and/or the Fluc reporter signal. Replicon-containing cells may be cultured with a test compound of the present invention for up to 3 days. Interferon (IFN) is used as a positive control. In general, the replicon IC50 values shown in Table 1 represent IC50 values determined by replicon RNA reduction.

Turning to `Cc1ccc2c(C#N)c(-c3ccc(S(=O)(=O)N[C@@H](C)C(F)(F)F)cn3)n(C3CCC3)c2n1` [Cpd 92, 6-(3-cyano-1-cyclobutyl-6-methyl-1H-pyrrolo[2,3-b]pyridin-2-yl)-N-[(2S)-1,1,1-trifluoropropan-2-yl]pyridine-3-sulfonamide], the IC50 (usually the concentration that inhibits the measured activity by half) was < 0.5 µM.

For the compound `COc1cnc2c(c1)c(C#N)c(-c1ccc(S(=O)(=O)NC3(C(F)(F)F)CC3)cn1)n2C1CCC1` [Cpd 312, 6-(3-cyano-1-cyclobutyl-5-methoxy-1H-pyrrolo[2,3-b]pyridin-2-yl)-N-[1-(trifluoromethyl)cyclopropyl]pyridine-3-sulfonamide], the IC50 is < 0.5 µM. As for `CSc1cnc2c(c1)c(C(=O)O)c(-c1ccc(S(=O)(=O)NC3(C(F)(F)F)CC3)cn1)n2C1CCCC1` [Cpd 330, 1-cyclopentyl-5-(methylsulfanyl)-2-(5-{[1-(trifluoromethyl)cyclopropyl]sulfamoyl}pyridin-2-yl)-1H-pyrrolo[2,3-b]pyridine-3-carboxylic acid], the IC50 fell in the range of 2 to 5 µM. `Cc1ccc2c(C#N)c(-c3ncc(S(=O)(=O)NC(C)C)cn3)n(C3CCC3)c2n1` [Cpd 95, 2-(3-cyano-1-cyclobutyl-6-methyl-1H-pyrrolo[2,3-b]pyridin-2-yl)-N-(propan-2-yl)pyrimidine-5-sulfonamide] registered an IC50 of 0.5 to 2 µM. Turning to `C[C@H](NS(=O)(=O)c1ccc(-c2cc3cc(C(F)(F)F)cnc3n2-c2ccccc2)nc1)C(F)(F)F` [Cpd 314, 6-[1-phenyl-5-(trifluoromethyl)-1H-pyrrolo[2,3-b]pyridin-2-yl]-N-[(2S)-1,1,1-trifluoropropan-2-yl]pyridine-3-sulfonamide], the IC50 lay within 0.5 to 2 µM. Turning to `COc1cnc2c(c1)c(C(N)=O)c(-c1ccc(S(=O)(=O)NC3(C)CC3)cn1)n2C1CCCC1` [Cpd 410, 1-cyclopentyl-5-methoxy-2-{5-[(1-methylcyclopropyl)sulfamoyl]pyridin-2-yl}-1H-pyrrolo[2,3-b]pyridine-3-carboxamide], the IC50 fell in the range of 0.5 to 2 µM. `CSc1cnc2c(c1)c(C(=O)O)c(-c1ccc(S(=O)(=O)N[C@@H](C)C(F)(F)F)cn1)n2C1CCC1` [Cpd 386, 1-cyclobutyl-5-(methylsulfanyl)-2-(5-{[(2S)-1,1,1-trifluoropropan-2-yl]sulfamoyl}pyridin-2-yl)-1H-pyrrolo[2,3-b]pyridine-3-carboxylic acid] registered an IC50 of 0.5 to 2 µM. To `CC(C)(NS(=O)(=O)c1ccc(-c2c(C(N)=O)c3cc(C4CC4)cnc3n2C2CCC2)cc1)C(F)(F)F` [Cpd 372, 1-cyclobutyl-5-cyclopropyl-2-{4-[(1,1,1-trifluoro-2-methylpropan-2-yl)sulfamoyl]phenyl}-1H-pyrrolo[2,3-b]pyridine-3-carboxamide] belongs < 0.5 µM.

Turning to `C[C@H](NS(=O)(=O)c1ccc(-c2c(C#N)c3ccc(C4CC4)nc3n2C2CCC2)cc1)C(F)(F)F` [Cpd 149, 4-(3-cyano-1-cyclobutyl-6-cyclopropyl-1H-pyrrolo[2,3-b]pyridin-2-yl)-N-[(2S)-1,1,1-trifluoropropan-2-yl]benzenesulfonamide], the IC50 is < 0.5 µM. In the case of `CC1(NS(=O)(=O)c2ccc(-c3c(C#N)c4cc(Cl)cnc4n3C3CCC3)nc2)CC1` [Cpd 280, 6-(5-chloro-3-cyano-1-cyclobutyl-1H-pyrrolo[2,3-b]pyridin-2-yl)-N-(1-methylcyclopropyl)pyridine-3-sulfonamide] it was < 0.5 µM. Regarding `Cc1cnc2c(c1)c(C(N)=O)c(-c1ccc(S(=O)(=O)NC3(C(F)(F)F)CC3)cc1)n2C1CCC1` [Cpd 342, 1-cyclobutyl-5-methyl-2-(4-{[1-(trifluoromethyl)cyclopropyl]sulfamoyl}phenyl)-1H-pyrrolo[2,3-b]pyridine-3-carboxamide], the IC50 is < 0.5 µM. For the compound `COc1cnc2c(c1)c(C#N)c(-c1ccc(S(=O)(=O)N[C@H](C)C(F)(F)F)cn1)n2C1CCC1` [Cpd 48, 6-(3-cyano-1-cyclobutyl-5-methoxy-1H-pyrrolo[2,3-b]pyridin-2-yl)-N-[(2R)-1,1,1-trifluoropropan-2-yl]pyridine-3-sulfonamide], the half-maximal inhibitory concentration (IC50) was < 0.5 µM. With `[C-]#[N+]c1cnc(-n2c(-c3ccc(S(=O)(=O)N[C@@H](C)C(F)(F)F)cn3)c(C#N)c3cc(C)cnc32)s1` [Cpd 451, 6-[3-cyano-1-(5-isocyano-1,3-thiazol-2-yl)-5-methyl-1H-pyrrolo[2,3-b]pyridin-2-yl]-N-[(2S)-1,1,1-trifluoropropan-2-yl]pyridine-3-sulfonamide], the IC50 was < 0.5 µM.

Consider `Cc1cnc2c(c1)c(C#N)c(-c1ccc(S(=O)(=O)N[C@@H](C)C(F)(F)F)cn1)n2C1CCCC1` [Cpd 255, 6-(3-cyano-1-cyclopentyl-5-methyl-1H-pyrrolo[2,3-b]pyridin-2-yl)-N-[(2S)-1,1,1-trifluoropropan-2-yl]pyridine-3-sulfonamide], for which the IC50 is < 0.5 µM. Take `Cc1ccc2c(C#N)c(-c3ccc(S(=O)(=O)NC(C)(C)C(F)(F)F)cc3)n(C3CCC3)c2n1` [Cpd 139, 4-(3-cyano-1-cyclobutyl-6-methyl-1H-pyrrolo[2,3-b]pyridin-2-yl)-N-(1,1,1-trifluoro-2-methylpropan-2-yl)benzenesulfonamide]: the IC50 lay within 0.5 to 2 µM. In turn, `C[C@H](NS(=O)(=O)c1cnc(-c2c(C(N)=O)c3cccnc3n2C2CCC2)nc1)C(F)(F)F` [Cpd 367, 1-cyclobutyl-2-(5-{[(2S)-1,1,1-trifluoropropan-2-yl]sulfamoyl}pyrimidin-2-yl)-1H-pyrrolo[2,3-b]pyridine-3-carboxamide] returned an IC50 of 2 to 5 µM. Consider `NC(=O)c1c(-c2ccc(S(=O)(=O)NC3(C(F)(F)F)CC3)cn2)n(C2CCC2)c2ncc(C3CC3)cc12` [Cpd 374, 1-cyclobutyl-5-cyclopropyl-2-(5-{[1-(trifluoromethyl)cyclopropyl]sulfamoyl}pyridin-2-yl)-1H-pyrrolo[2,3-b]pyridine-3-carboxamide], for which the IC50 is < 0.5 µM. Compound `CC(C)(C)NS(=O)(=O)c1ccc(-c2c(C#N)c3cc(F)cnc3n2C2CCC2)cc1` [Cpd 369, N-tert-butyl-4-(3-cyano-1-cyclobutyl-5-fluoro-1H-pyrrolo[2,3-b]pyridin-2-yl)benzenesulfonamide] came in with an IC50 of 0.5 to 2 µM.

Take `CCc1cnc2c(c1)c(C#N)c(-c1ccc(S(=O)(=O)N[C@@H](C)C(F)(F)F)cn1)n2C1CCC1` [Cpd 157, 6-(3-cyano-1-cyclobutyl-5-ethyl-1H-pyrrolo[2,3-b]pyridin-2-yl)-N-[(2S)-1,1,1-trifluoropropan-2-yl]pyridine-3-sulfonamide]: the concentration for half-maximal inhibition (IC50) is < 0.5 µM.

On to `C[C@H](NS(=O)(=O)c1ccc(-c2c(C#N)c3cc(F)cnc3n2-c2ccccc2)nc1)C(F)(F)F` [Cpd 319, 6-(3-cyano-5-fluoro-1-phenyl-1H-pyrrolo[2,3-b]pyridin-2-yl)-N-[(2S)-1,1,1-trifluoropropan-2-yl]pyridine-3-sulfonamide], for which the IC50 is < 0.5 µM. For `COc1cnc2c(c1)c(C#N)c(-c1ccc(S(=O)(=O)N[C@@H](C)C(F)(F)F)cn1)n2C1CCC1` [Cpd 22, 6-(3-cyano-1-cyclobutyl-5-methoxy-1H-pyrrolo[2,3-b]pyridin-2-yl)-N-[(2S)-1,1,1-trifluoropropan-2-yl]pyridine-3-sulfonamide], the IC50 fell in the range of 0.5 to 2 µM. Regarding `CC1(NS(=O)(=O)c2ccc(-c3c(C#N)c4cc(Cl)cnc4n3C3CCC3)cc2)CC1` [Cpd 284, 4-(5-chloro-3-cyano-1-cyclobutyl-1H-pyrrolo[2,3-b]pyridin-2-yl)-N-(1-methylcyclopropyl)benzenesulfonamide], the IC50 was < 0.5 µM.

With `CN(Cc1ccccc1)c1cnc2c(c1)c(C#N)c(-c1ccc(S(=O)(=O)NC(C)(C)C(F)(F)F)cc1)n2C1CCC1` [Cpd 353, 4-{5-[benzyl(methyl)amino]-3-cyano-1-cyclobutyl-1H-pyrrolo[2,3-b]pyridin-2-yl}-N-(1,1,1-trifluoro-2-methylpropan-2-yl)benzenesulfonamide], the 50% inhibitory concentration (IC50) was in the range of 2 to 5 µM. In the case of `CCc1cnc2c(c1)c(C(N)=O)c(-c1ccc(S(=O)(=O)NC(C)(C)C)cc1)n2C1CCC1` [Cpd 381, 2-[4-(tert-butylsulfamoyl)phenyl]-1-cyclobutyl-5-ethyl-1H-pyrrolo[2,3-b]pyridine-3-carboxamide] it was < 0.5 µM; in that of `CSc1cnc2c(c1)c(C(N)=O)c(-c1ccc(S(=O)(=O)NC3(C(F)(F)F)CC3)cc1)n2C1CCC1` [Cpd 389, 1-cyclobutyl-5-(methylsulfanyl)-2-(4-{[1-(trifluoromethyl)cyclopropyl]sulfamoyl}phenyl)-1H-pyrrolo[2,3-b]pyridine-3-carboxamide], < 0.5 µM.

Take `CC1(NS(=O)(=O)c2ccc(-c3c(C(N)=O)c4cc(Cl)cnc4n3C3CCC3)nc2)CC1` [Cpd 366, 5-chloro-1-cyclobutyl-2-{5-[(1-methylcyclopropyl)sulfamoyl]pyridin-2-yl}-1H-pyrrolo[2,3-b]pyridine-3-carboxamide]: the IC50 was < 0.5 µM. As for `CCc1cnc2c(c1)c(C#N)c(-c1ccc(S(=O)(=O)NC(C)(C)C)cn1)n2C1CCC1` [Cpd 186, N-tert-butyl-6-(3-cyano-1-cyclobutyl-5-ethyl-1H-pyrrolo[2,3-b]pyridin-2-yl)pyridine-3-sulfonamide], the IC50 is < 0.5 µM.
